{"source": "paper PMC6722498", "about": "“Non-CYP2D6 Variants Selected by a GWAS Improve the Prediction of Impaired Tamoxifen Metabolism in Patients with Breast Cancer” (Journal of Clinical Medicine, 2019)", "key": {"[1]": {"test_system": "estrogen receptor (ER)", "parameters": "method as in PMID 15111773, PMID 16690721, PMID 21451508", "conditions": "fold higher; cited from earlier work"}, "[2]": {"assay": "Steady-state plasma concentration of (Z)-endoxifen (UPLC-MS/MS) in tamoxifen-treated breast cancer patients", "format": "in vivo, human", "conditions": "tamoxifen 20 mg daily", "source_text": "(§1) Between May 2012 and June 2014, 293 patients were recruited for a study of CYP2D6 genotype association with plasma concentrations of tamoxifen and its metabolites. Details of the inclusion criteria, study protocol, genotyping and mass spectrometry (MS) methodology, and primary results were reported previously. Briefly, all patients were Polish Caucasians, unselected women with verified hormone receptor-positive breast cancer (median age at diagnosis: 55 years; range: 25–95 years) receiving the standard treatment of 20 mg of tamoxifen daily for at least 1 month to ensure the steady-state plasma concentration of tested compounds. The median time between the initiation of tamoxifen treatment and blood sample collection was 21.5 months. Six patients had plasma drug concentrations <10% of the mean tamoxifen level across all patients and were excluded from further analyses.\n(§2) As previously described, whole blood samples were collected at study enrollment, and plasma was immediately separated and stored at −80 °C until ultraperformance liquid chromatography tandem MS (UPLC-MS/MS) analysis. For all samples, plasma concentrations of tamoxifen and its 14 key metabolites were measured, including the following: NDM-Tam, (Z)-endoxifen, (E)-endoxifen, 3-OH-NDM-Tam, 4′-OH-NDM-Tam, (Z)-4-OH-Tam, 3-OH-Tam, 4′-OH-Tam, (Z)-α-OH-Tam, (E)-α-OH-Tam, Tam-N-oxide, Tam-N-β-D-glucuronide (Tam-N-gluc), (E/Z)-4-OH-NDM-Tam-β-D-glucuronide ((E/Z)-4-OH-NDM-Tam-gluc), and (E)-4-OH-Tam-O-β-D-glucuronide ((E)-4-OH-Tam-O-gluc). All of the above compounds and deuterated internal standards (Tam-d5, NDM-Tam-d5, and (Z)-4-OH-Tam-d5) were from Toronto Research Chemicals (North York, ON, Canada). Details of the sample preparation method, MS/MS parameters, and linearity ranges of the metabolite standards are included in File S1.\nSample preparation was carried out as described by Dahmane et al., with slight modifications, including protein precipitation by acetonitrile. Briefly, 100 µl of plasma was mixed with 300 µl of ISs solution (3.3 ng/ml of Tam-d5, 3.3 ng/ml of NDM-Tam-d5 and 4.2 ng/ml of (Z)-4-OH-Tam-d5) in acetonitrile. After vortexing and centrifugation (10 min; 18,000× g), 350 µl of clear supernatant was evaporated under nitrogen in 55°C. Finally, samples were dissolved in 100 µl of 10 mM ammonium formate in 50% methanol.\nFor sample separation, an Acquity UPLC system equipped with Acquity BEH Shield RP18 column (100 × 2.1 mm, 1.7 µm particle size) (Waters, Milford, MA, USA) was used. The column was thermostatted at 70°C. The mobile phase A consisted of ultrapure water, and phase B consisted of 0.1% formic acid in acetonitrile. The flow rate was 0.6 ml/min and the total run time was 16 min per sample under nonlinear gradient condition as follows: 10% to 80% B for 12 min (concave curve), 80% B for 2 min, 95% B for 1 min and 10% B for 1 min.\nDetection was performed on a triple quadrupole mass spectrometer Xevo TQ-MS (Waters) in the positive ion electrospray ionization mode, with general mass spectrometry (MS) parameters as follows: capillary voltage, 3 kV; desolvation temperature, 550°C; desolvation gas (nitrogen) flow, 1000 l/h; cone gas (nitrogen) flow, 100 l/h and collision gas (argon) flow, 0.15 ml/min. Waters QuanLynx software was used for chromatograms integration and quantitation.\nAll compounds were divided between two calibration sets, A and B (Table 1), based on characteristic ions and retention times. Each set consisted of six calibration samples (CAL1 to CAL6) prepared by spiking blank plasma sample by an appropriate amount of analyte. The calibration range was chosen based on others’ published data, expected steady-state plasma metabolite concentration and our previous measurements. Linear calibration curves were obtained by plotting response (obtained by dividing peak area of analyte by peak area of internal standard) against calibration point of known concentration. […]"}, "[3]": {"assay": "Metabolic ratio (MR): (Z)-endoxifen plasma concentration divided by the sum of concentrations of tamoxifen and other measured metabolites", "format": "in vivo, human", "conditions": "for Metabolic Ratio of (Z)-endoxifen, Mean ± SD: tamoxifen 20 mg daily, plasma; for Metabolic ratio (MR): individual tamoxifen-treated breast cancer patient samples", "source_text": "We previously reported that the CYP2D6 genotype accounts for 51% of the variability in tamoxifen metabolism directed toward endoxifen production, expressed as the metabolic ratio (MR) of (Z)-endoxifen (the major isomer of endoxifen produced from tamoxifen) plasma concentration divided by the sum of concentrations of tamoxifen and other measured metabolites. The metabolic ratio is more useful than (Z)-endoxifen concentration alone, because it accounts for omitted drug doses or the concomitant use of CYP2D6 inhibitors. Using simple linear regression, we estimated that an MR value of 0.0146 corresponds to the predefined 6 ng mL^−1 (Z)-endoxifen efficacy threshold level. Here, we adopted a genome-wide association study (GWAS) approach to search for new DNA variants that could assist in the prediction of impaired tamoxifen metabolism in Polish patients with breast cancer treated with the standard daily dose (20 mg).\nas §1, §2\nGenomic DNA samples extracted from blood were genotyped for CYP2D6 alleles, according to the nomenclature described at https://www.parmvar.org/gene/CYP2D6 [10], as previously reported. Briefly, individual TaqMan allelic discrimination assays were performed for 11 SNPs, and 3 TaqMan Gene Copy Number Assays were conducted to assess gene deletion or duplication (Thermo Fisher, Waltham, MA, USA). Each CYP2D6 allele was assigned to one of four phenotypic categories, according to its associated enzyme function. PM (nonfunctional) alleles included CYP2D6*3, *4, *5, *6, and *7; IM (reduced-function) alleles were CYP2D6*9, *10, *17, and *41; NM (WT; fully functional) alleles included CYP2D6*1 and *2; and UM (increased-function) alleles were duplicates of NM variants, such as CYP2D6*1XN and *2XN. For the current study, patients were categorized into two groups of CYP2D6 functional activity: 1) Impaired metabolizers, who were presumed to have impaired metabolism of tamoxifen toward endoxifen (with CYP2D6 diplotypes PM/PM, IM/PM, IM/IM, NM/PM, and NM/IM), and 2) normal metabolizers, with predicted therapeutically effective tamoxifen metabolism (carrying CYP2D6 diplotypes NM/NM and NM/UM)."}, "[4]": {"parameters": "method as in PMID 26232141", "conditions": "Polish women with fully active CYP2D6 (NM/NM); tamoxifen 20 mg daily; cited from earlier work"}, "[5]": {"parameters": "method as in PMID 26232141", "conditions": "simple linear regression; corresponds to predefined 6 ng mL^−1 (Z)-endoxifen threshold; cited from earlier work"}, "[6]": {"test_system": "breast cancer", "conditions": "cited from earlier work"}}, "note": "“And” between values parts separate entries of the source, which are not always exact repeats. Equal values may be shown once. Read-outs that look alike come from different tables or passages of the source.", "data": [{"molecule": "4-hydroxy-tamoxifen [4-OH-Tam]", "values": [{"measurement": "antiestrogenic potency relative to other tamoxifen metabolites and the parent drug", "setting": "[1]", "result": "up to 100 fold"}]}, {"molecule": "CC/C(=C(\\c1ccc(O)cc1)c1ccc(OCCNC)cc1)c1ccccc1", "note": "[(Z)-endoxifen, (Z)-4-hydroxy-N-desmethyl-tamoxifen]", "values": [{"measurement": "(Z)-endoxifen steady-state plasma concentration, Mean ± SD", "setting": "[2]; CYP2D6 genotype IM/IM (n=3)", "result": "3.05 ± 1.91", "unit": "ng/mL"}, {"measurement": "(Z)-endoxifen steady-state plasma concentration, Mean ± SD", "setting": "[2]; CYP2D6 genotype IM/PM (n=12)", "result": "2.22 ± 0.87", "unit": "ng/mL"}, {"measurement": "(Z)-endoxifen steady-state plasma concentration, Mean ± SD", "setting": "[2]; CYP2D6 genotype NM/IM (n=44)", "result": "5.60 ± 3.26", "unit": "ng/mL"}, {"measurement": "(Z)-endoxifen steady-state plasma concentration, Mean ± SD", "setting": "[2]; CYP2D6 genotype NM/NM (n=90)", "result": "7.26 ± 3.18", "unit": "ng/mL"}, {"measurement": "(Z)-endoxifen steady-state plasma concentration, Mean ± SD", "setting": "[2]; CYP2D6 genotype NM/PM (n=99)", "result": "4.85 ± 2.46", "unit": "ng/mL"}, {"measurement": "(Z)-endoxifen steady-state plasma concentration, Mean ± SD", "setting": "[2]; CYP2D6 genotype NM/UM (n=18)", "result": "6.96 ± 3.75", "unit": "ng/mL"}, {"measurement": "(Z)-endoxifen steady-state plasma concentration, Mean ± SD", "setting": "[2]; CYP2D6 genotype PM/PM (n=21)", "result": "1.79 ± 0.66", "unit": "ng/mL"}, {"measurement": "Metabolic Ratio of (Z)-endoxifen, Mean ± SD", "setting": "[3]; CYP2D6 genotype IM/IM (n=3)", "result": "0.0063 ± 0.0022"}, {"measurement": "Metabolic Ratio of (Z)-endoxifen, Mean ± SD", "setting": "[3]; CYP2D6 genotype IM/PM (n=12)", "result": "0.0047 ± 0.0014"}, {"measurement": "Metabolic Ratio of (Z)-endoxifen, Mean ± SD", "setting": "[3]; CYP2D6 genotype NM/IM (n=44)", "result": "0.0125 ± 0.0054"}, {"measurement": "Metabolic Ratio of (Z)-endoxifen, Mean ± SD", "setting": "[3]; CYP2D6 genotype NM/NM (n=90)", "result": "0.0185 ± 0.0057"}, {"measurement": "Metabolic Ratio of (Z)-endoxifen, Mean ± SD", "setting": "[3]; CYP2D6 genotype NM/PM (n=99)", "result": "0.0108 ± 0.0043"}, {"measurement": "Metabolic Ratio of (Z)-endoxifen, Mean ± SD", "setting": "[3]; CYP2D6 genotype NM/UM (n=18)", "result": "0.0201 ± 0.0076"}, {"measurement": "Metabolic Ratio of (Z)-endoxifen, Mean ± SD", "setting": "[3]; CYP2D6 genotype PM/PM (n=21)", "result": "0.0037 ± 0.0013"}, {"measurement": "Metabolic ratio (MR)", "setting": "[3]; CYP2D6 genotype IM/PM", "result": "0.00274 and 0.00459 and 0.0029 and 0.00363"}, {"measurement": "Metabolic ratio (MR)", "setting": "[3]; CYP2D6 genotype NM/IM", "result": "0.00647 and 0.0081 and 0.00839 and 0.01209 and 0.0056 and 0.01085 and 0.0096 and 0.00997 and 0.01604"}, {"measurement": "Metabolic ratio (MR)", "setting": "[3]; CYP2D6 genotype NM/NM", "result": "0.01773 and 0.01628 and 0.0192 and 0.02007 and 0.01314 and 0.01689 and 0.01957 and 0.01357 and 0.0089 and 0.01713 and 0.01204 and 0.01768 and 0.01853 and 0.01753 and 0.01866 and 0.01752 and 0.01504 and 0.00404 and 0.01279 and 0.01592 and 0.01076 and 0.01005 and 0.01645"}, {"measurement": "Metabolic ratio (MR)", "setting": "[3]; CYP2D6 genotype NM/PM", "result": "0.01496 and 0.01155 and 0.00944 and 0.00815 and 0.01001 and 0.01495 and 0.00803 and 0.01657 and 0.01419 and 0.01098 and 0.0072 and 0.00801 and 0.01175 and 0.00523 and 0.00652 and 0.00522 and 0.00788 and 0.00603 and 0.00607 and 0.00605 and 0.01073"}, {"measurement": "Metabolic ratio (MR)", "setting": "[3]; CYP2D6 genotype NM/UM", "result": "0.013 and 0.01894 and 0.02933 and 0.01233"}, {"measurement": "Metabolic ratio (MR)", "setting": "[3]; CYP2D6 genotype PM/PM", "result": "0.00294 and 0.00405 and 0.0035 and 0.00163"}, {"measurement": "proportion of patients not achieving the beneficial threshold level of plasma (Z)-endoxifen", "setting": "[4]", "result": "over 30%"}, {"measurement": "MR value corresponding to the (Z)-endoxifen efficacy threshold level", "setting": "[5]", "result": 0.0146}]}, {"molecule": "CC/C(=C(\\c1ccc(O)cc1)c1ccc(OCCNC)cc1)c1ccccc1", "note": "[endoxifen, 4-hydroxy-N-desmethyl-tamoxifen]", "values": [{"measurement": "minimal threshold level of endoxifen to achieve the desired treatment efficacy", "setting": "[6]; large retrospective study, lowest quintile", "result": "> 5.97", "unit": "ng/mL"}, {"measurement": "lower breast cancer recurrence rate relative to patients with lower endoxifen concentrations", "setting": "[6]; patients with endoxifen concentration >5.97 ng mL^−1", "result": 26, "unit": "%"}, {"measurement": "endoxifen efficacy threshold level", "setting": "[6]; ref 30", "result": 5.3, "unit": "ng/mL"}, {"measurement": "endoxifen efficacy threshold level", "setting": "[6]; ref 32", "result": 3.36, "unit": "ng/mL"}, {"measurement": "antiestrogenic potency relative to other tamoxifen metabolites and the parent drug", "setting": "[1]", "result": "up to 100 fold"}]}]}
